In US20070128217A1 (priority 2003, published 2007):

Tests used:
[1] = tested on: recombinant human anti-SARS-CoV antibody 03-018; assay type: binding; set-up: Binding of antibody 03-018 to linear peptides of the N protein of SARS-CoV Urbani / Binding of antibody 03-018 to looped/cyclic peptides of the N protein of SARS-CoV Urbani: unit not given here
[2] = tested on: control sera (pooled serum of ten healthy LUMC hospital workers; commercial negative donor pooled serum from the Dutch bloodbank); assay type: binding, human; set-up: Binding of Control serum LUMC to linear peptides / Binding of Control serum Blood-bank to linear peptides / Binding of Control serum LUMC to looped peptides / Binding of Control Serum Blood-Bank to Looped peptides / Binding of Control serum LUMC to linear peptides of the protein M of SARS-CoV Urbani / Binding of Control serum Blood-bank to linear peptides of the protein M of SARS-CoV Urbani / Binding of Control serum LUMC to looped peptides of the protein M of SARS-CoV Urbani / Binding of Control Serum Blood-Bank to Looped peptides of the protein M of SARS-CoV Urbani: unit not given here
[3] = tested on: antibodies in sera from SARS patients (sera 1a, 1b, 2, 6, 37, 62, London, SARS-yellow, SARS-green); assay type: binding, human; set-up: Binding of serum 6 to linear peptides of protein X1 of SARS-CoV Urbani / Binding of serum 37 to linear peptides of protein X1 of SARS-CoV Urbani / Binding of serum 6 to looped/cyclic peptide (PEPSCAN-ELISA) / Binding of serum 37 to looped/cyclic peptide (PEPSCAN-ELISA) / Binding of serum 37 to looped/cyclic peptides of protein X1 of SARS-CoV Urbani / Binding of serum 6 to linear peptides of protein X2 / Binding of serum 37 to linear peptides of protein X2 / Binding of serum 37 to looped/cyclic peptides of protein X2 of SARS-CoV Urbani / Binding of serum 6 to linear peptides of protein M of SARS-CoV Urbani / Binding of serum 37 to linear peptides of protein M of SARS-CoV Urbani / Binding of serum 6 to looped/cyclic peptides of protein M of SARS-CoV Urbani / Binding of serum 37 to looped/cyclic peptides of protein M of SARS-CoV Urbani / Binding of serum 6 to linear peptides of protein X3 of SARS-CoV Urbani / Binding of serum 37 to linear peptides of protein X3 of SARS-CoV Urbani / Binding of serum 37 to looped/cyclic peptides of protein X3 of SARS-CoV Urbani / Binding of serum 6 to linear peptides of protein X4 of SARS-CoV Urbani / Binding of serum 37 to linear peptides of protein X4 of SARS-CoV Urbani / Binding of serum 37 to looped/cyclic peptides of protein X4 of SARS-CoV Urbani / Binding of serum 6 to linear peptides of protein X5 of SARS-CoV Urbani / Binding of serum 37 to linear peptides of protein X5 of SARS-CoV Urbani / Binding of serum 37 to looped/cyclic peptides of protein X5 of SARS-CoV Urbani / Binding of serum 6 to linear peptides of protein N of SARS-CoV Urbani / Binding of serum 37 to linear peptides of protein N of SARS-CoV Urbani / Binding of serum 6 to linear peptide (PEPSCAN-ELISA) / Binding of serum 1a to looped/cyclic peptides of protein N of SARS-CoV Urbani / Binding of serum 1b to looped/cyclic peptides of protein N of SARS-CoV Urbani / Binding of serum 2 to looped/cyclic peptides of protein N of SARS-CoV Urbani / Binding of serum 6 to looped/cyclic peptides of protein N of SARS-CoV Urbani / Binding of serum 37 to looped/cyclic peptides of protein N of SARS-CoV Urbani / Binding of serum 62 to looped/cyclic peptides of protein N of SARS-CoV Urbani / Binding of serum London to looped/cyclic peptides of protein N of SARS-CoV Urbani / Binding of serum SARS-green to looped/cyclic peptides of protein N of SARS-CoV Urbani: unit not given here
[4] = tested on: rabbit serum obtained by immunizing a rabbit with the SARS-CoV strain Frankfurt 1; assay type: binding; set-up: Binding of a rabbit serum to linear peptides / Binding of a rabbit serum to looped peptides / Rabbit serum linear peptides / Rabbit serum looped peptides / Binding of a rabbit serum to linear peptides of protein N of SARS-CoV Urbani (Rabbit serum linear peptides) / Binding of a rabbit serum to looped/cyclic peptides of protein N of SARS-CoV Urbani (Rabbit serum looped peptides): unit not given here

| Sequence | Binding of antibody 03-018 to linear peptides of the N protein of SARS-CoV Urbani [1] | Binding of antibody 03-018 to looped/cyclic peptides of the N protein of SARS-CoV Urbani [1] | Binding of Control Serum Blood-Bank to Looped peptides [2] | Binding of Control serum Blood-bank to linear peptides [2] | Binding of Control serum LUMC to linear peptides [2] | Binding of Control serum LUMC to looped peptides [2] | Binding of serum 1a to looped/cyclic peptides of protein N of SARS-CoV Urbani [3] | Binding of serum 1b to looped/cyclic peptides of protein N of SARS-CoV Urbani [3] | Binding of serum 2 to looped/cyclic peptides of protein N of SARS-CoV Urbani [3] | Binding of serum 6 to looped/cyclic peptides of protein N of SARS-CoV Urbani [3] | Binding of serum 37 to looped/cyclic peptides of protein N of SARS-CoV Urbani [3] | Binding of serum 62 to looped/cyclic peptides of protein N of SARS-CoV Urbani [3] | Binding of serum London to looped/cyclic peptides of protein N of SARS-CoV Urbani [3] | Binding of serum SARS-green to looped/cyclic peptides of protein N of SARS-CoV Urbani [3] | Binding of serum SARS-yellow to looped/cyclic peptides of protein N of SARS-CoV Urbani [3] | Binding of a rabbit serum to linear peptides of protein N of SARS-CoV Urbani (Rabbit serum linear peptides) [4] | Binding of a rabbit serum to looped/cyclic peptides of protein N of SARS-CoV Urbani (Rabbit serum looped peptides) [4] | other results |
| --- | --- | --- | --- | --- | --- | --- | --- | --- | --- | --- | --- | --- | --- | --- | --- | --- | --- | --- |
| LDRLNQLESKVSGKG | 0.1 | 0.2 | 0.5 | 1.0 | 0.8 | 0.5 | 0.4 | 0.3 | 0.4 | 0.3 | 0.4 | 0.4 | 0.4 | 0.2 | 0.3 | 0.0 | 0.4 | Binding of serum 1a to linear peptide (PEPSCAN-ELISA) [3]: 0.3; Binding of serum 1b to linear peptide (PEPSCAN-ELISA) [3]: 0.2; Binding of serum 2 to linear peptide (PEPSCAN-ELISA) [3]: 0.3; Binding of serum 6 to linear peptide (PEPSCAN-ELISA) [3]: 0.3; Binding of serum 37 to linear peptide (PEPSCAN-ELISA) [3]: 0.5; Binding of serum 62 to linear peptide (PEPSCAN-ELISA) [3]: 0.6; Binding of serum London to linear peptide (PEPSCAN-ELISA) [3]: 0.5; Binding of serum SARS-green to linear peptide (PEPSCAN-ELISA) [3]: 0.8; Binding of serum SARS-yellow to linear peptide (PEPSCAN-ELISA) [3]: 0.7 |
| LIRQGTDYKHWPQIA | 0.1 | 0.1 | 0.6 | 0.7 | 0.7 | 0.5 | 0.4 | 0.5 | 0.5 | 0.3 | 0.6 | 0.5 | 0.3 | 1.0 | 1.1 | 0.2 | 0.0 | Binding of serum 1a to linear peptides of protein N of SARS-CoV Urbani [3]: 0.3; Binding of serum 1b to linear peptides of protein N of SARS-CoV Urbani [3]: 0.2; Binding of serum 2 to linear peptides of protein N of SARS-CoV Urbani [3]: 0.4; Binding of serum 6 to linear peptides of protein N of SARS-CoV Urbani [3]: 0.2; Binding of serum 37 to linear peptides of protein N of SARS-CoV Urbani [3]: 0.8; Binding of serum 62 to linear peptides of protein N of SARS-CoV Urbani [3]: 0.9; Binding of serum London to linear peptides of protein N of SARS-CoV Urbani [3]: 0.9; Binding of serum SARS-green to linear peptides of protein N of SARS-CoV Urbani [3]: 0.4; Binding of serum SARS-yellow to linear peptides of protein N of SARS-CoV Urbani [3]: 0.6 |
